Source: US11708344B2, “Flavone derivatives for the treatment and prophylaxis of hepatitis B virus disease” (Hoffmann-La Roche Inc., priority 2018, dated 2023)
pIC50: −log10 of the molar value.

Tests used:
[1] = test system: HBsAg in HBV-infected PHH; experiment: Cryopreserved primary human hepatocytes (PHH) HBV infection assay, extracellular HBsAg (CLIA); assay type: cell-based; settings: Hepatitis B virus, Hepatocyte, 216 h, read-out: HBsAg IC50, Cryopreserved PHH infected with HBV, 9 days post-compound treatment, extracellular HBsAg
Method in brief: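 Cryopreserved PHH were infected with 5.8×10^6 HBV genome equivalents in medium with 4% PEG8000 and 1% DMSO. After 9 days of treatment, extracellular HBsAg was measured by CLIA, and IC50 was derived from a 4-parameter logistic fit.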

[2] = test system: cccDNA in HepDES19 cells; experiment: cccDNA Southern Blot assay; assay type: cell-based, HBV; settings: 5 days' compound treatment, FIG. 1
Protocol: HepDES19 cells were seeded at 4*10^6 cells per T150 in the culture medium (Dulbecco's Modified Eagle Medium: Nutrient Mixture F-12 [DMEM-F12, Gibco Cat. 11320-82], 10% Fetal Bovine Serum [FBS, Clontech Cat. 631101], 0.1 mM Non-Essential Amino Acids Solution [NEAA, Gibco Cat. 11140-050], 50 μg/mL Penicillin-Streptomycin [PS, Invitrogen Cat. 15140-163], 500 μg/mL Geneticin [G418, Invitrogen Cat. 10131-027]) in the absence of Tet for 8 days. These cells were seeded at the density of 1×10^6 cells per well in 6-well plate. At 24 hours after seeding, serial dilutions of compounds made with DMSO (Sigma, Cat. D2650) were further diluted with the same culture medium as described above before they were added to the cells to reach desired final compound concentrations and 1% DMSO concentration. After 5 days' compound treatment, the cells growing in one well from 6-well plate were re-suspended with 500 μL re-suspension buffer (50 mM tris [hydroxymethyl]amino methane pH 7.5), 10 mM ethylenediaminetetraacetic acid (EDTA), 50 μg/mL RNase A [Qiagen, Cat. 158922], 500 μL of 1.2% sodium dodecyl sulfate (SDS) was then added into the re-suspended cells to lyse the cells. After 15 minutes' incubation, 700 μL precipitation buffer (3M cesium chloride, 1M potassium acetate, 0.67M acetic acid) was added and the lysate was incubated at 4° C. for 2 h. […]

## O=c1cc(-c2ccc(Br)cc2OCCO[C@H]2C[C@@H](C(=O)O)C2)oc2c(Cl)cccc12 [Example C003-A, Cis-3-[2-[5-bromo-2-(8-chloro-4-oxo-chromen-2-yl)phenoxy]ethoxy]cyclobutanecarboxylic acid]
[1]
  pIC50: 5.06
[2]
  cccDNA level (Southern Blot): dose-dependently reduced cccDNA level
